Measured values reported in patent US10640450B1, “Hydroxytyrosol dihydrocaffeate having antioxidant activity and a method for preparing the same” (SHAANXI UNIVERSITY OF SCIENCE AND TECHNOLOGY, priority 2019, dated 2020).

Experiment: DPPH radical scavenging activity assay
Assay type: biochemical
Details: for DPPH Clearance rate: 30 min dark, room temperature, 517 nm, n = 3
Source text: 2,2-Diphenyl-1-picryl hydrazyl (DPPH) is an organic compound composed of a stable organic radical. In the DPPH molecule, due to the presence of multiple electron-withdrawing —NO2 and large π bonds of the benzene ring, nitrogen free radical is stabilized. Its methanol solution is purple and has a maximum absorption peak at 517 nm. After the addition of an antioxidant, DPPH captures an electron to be paired with the free electron, and the purple fades and turns into a yellow substance. The absorption at 517 nm disappears, and the degree of fading is quantitatively related to the number of electrons it captures. Based on this principle, a spectrophotometer is used to detect the change of the absorbance of the DPPH radical and the sample solution, and the ability of the sample to provide hydrogen atoms and scavenge free radicals can be measured.
(a) Preparation of DPPH solution: measuring exact amount of 2,2-diphenyl-1-picryl hydrazyl (DPPH) and dissolving in toluene to prepare a 0.2 mmoL/L DPPH solution, stored at 0° C. in dark.
(b) Preparation of test solution: Vc (vitamin C, positive control), hydroxytyrosol dihydrocaffeate (sample), hydroxytyrosol (control) and dihydrocaffeic acid (control). The sample solution was subjected to gradient dilution with toluene, and three sets of controls were separately dissolved in a test tube with a certain amount of toluene to prepare the same concentration gradient as the sample.
Sample liquid absorbance measurement: Taking 2 mL of test solution (Table 1: Vc, A, B, C), adding 2 mL of DPPH solution with concentration of […], mixing and reacting in the dark at room temperature for 30 min, adjusting to zero with toluene, and measuring at 517 nm. The absorbance A, was simultaneously measured for the absorbance of 2 mL of toluene mixed with 2 mL of the solution and the absorbance A0 of 2 mL of DPPH solution mixed with 2 mL of toluene (The experimental results are shown in Table 2).
Clearance rate (%)=[1−(Ai−Aj)/A0]*100% Clearance calculation: […]

SMILES	DPPH Clearance rate (1.76 ppm in toluene)	DPPH Clearance rate (8.80 ppm in toluene)	DPPH Clearance rate (21.12 ppm in toluene)	DPPH Clearance rate (42.24 ppm in toluene)	DPPH Clearance rate (79.20 ppm in toluene)	DPPH Clearance rate (112.64 ppm in toluene)	DPPH Clearance rate (281.60 ppm in toluene)	DPPH Clearance rate (492.80 ppm in toluene)	DPPH Clearance rate (792.00 ppm in toluene)	DPPH Clearance rate (915.20 ppm in toluene)	antioxidant activity (in words)	scavenging ability to DPPH radical compared with controls (compared with hydroxytyrosol (B) and dihydrocaffeic acid (C) alone)	highest scavenging rate of DPPH radical (in the determined concentration range (1.76-915.20 ppm))
O=C(O)CCc1ccc(O)c(O)c1 [C, Dihydrocaffeic acid]	6.27%	7.46%	13.42%	19.21%	32.36%	37.87%	53.23%	59.82%	69.01%	70.28%	–	–	–
O=C1O[C@H]([C@@H](O)CO)C(O)=C1O [Vc, Vitamin C]	23.16%	33.47%	79.63%	89.55%	97.42%	97.53%	98.29%	99.06%	99.10%	99.28%	–	–	–
O=C(CCc1ccc(O)c(O)c1)OCCc1ccc(O)c(O)c1 [A, 3,4-dihydroxyphenethyl 3-(3,4-dihydroxyphenyl)propanoate]	13.45%	17.80%	34.16%	42.74%	70.42%	80.63%	82.35%	85.70%	89.10%	91.22%	excellent antioxidant activity	much higher than those of hydroxytyrosol (B) control group and dihydrocaffeic acid (C) control groups	91.22%
